Measured values as given in patent publication US20250197864A1, “LNCRNA TRANSCRIPTS IN MELANOMAGENESIS” (The Regents of the University of California, priority 2021, published 2025).

Tested on: gene expression in D04 melanoma cells
Test: RNA-Seq differential expression analysis (DESeq2)
Assay type: cell-based, human
Method: Total RNA was isolated using the RNeasy mini Kit (QIAGEN) following the manufacturer's protocol. Quality check for extracted RNA was done using 2100 Bioanalyzer (Agilent Technologies, USA) or Tapestation System (Agilent Technologies, USA). […] For samples used for identification of MAPK-responsive lncRNAs, paired-end, 101-bp sequencing was performed by Centrillion Genomic Services (Centrillion Biosciences, USA) on an Illumina HiSeq 2000. For DE gene analysis of ASO-transfected D04 samples, paired-end, 2×150-bp sequencing was performed by Genewiz (USA) on a Illumina HiSeq.
Sequence reads were aligned to the human genome (hg19) using TopHat (Version 2.0.11).
Differential expression (DE) analysis was done using DESeq2. Differentially expressed genes were defined by more than 1.5-fold changes (log 2 >0.58 or <−0.58) in expression with FDR<0.05. GO term analysis was done using DAVID Functional Annotation Clustering analysis.
To examine the biomolecular changes upon TRASH-inhibition in melanoma, D04 cells were treated with TRASH-ASOs (SEQ ID NO:15) and Control-ASOs and RNA was extracted and used for RNA-Seq. […] These GO terms consisted of genes encoding growth factors, tyrosine kinases, G protein coupled receptor subunits, and collagen subunits. Scatter plot diagram showing differential gene expression after TRASH-ASO treatment compared to Control-ASO treatment. (cut-off for significance was adjusted p-value <0.05). Data was obtained from RNA-Seq of D04 melanoma cells, treatment period was three days. (FIG. 5c)

GACTGGAGATAATTAA (gapmer, pattern not given here) [SEQ ID NO: 15, GapmeR ASO targeting AC004540.4 (TRASH), exon region of both isoforms; used for in vitro experiments]
log2FoldChange (44256 (ENSG00000186205)): 1.274
log2FoldChange (44259 (ENSG00000144583)): 2.095
log2FoldChange (A2M (ENSG00000175899)): −0.6461
log2FoldChange (AADACP1 (ENSG00000240602)): 1.744
log2FoldChange (AAGAB (ENSG00000103591)): −0.6248
log2FoldChange (AAMDC (ENSG00000087884)): −0.6077
log2FoldChange (ABCA7 (ENSG00000064687)): −0.6185
log2FoldChange (AC004817.3 (ENSG00000269927)): 1.303
log2FoldChange (AC004949.1 (ENSG00000283117)): −0.6056
log2FoldChange (AC005144.1 (ENSG00000283517)): 1.578
log2FoldChange (AC006058.1 (ENSG00000261786)): −0.7044
log2FoldChange (AC009502.2 (ENSG00000231802)): 1.847
log2FoldChange (AC010735.1 (ENSG00000261379)): −0.6617
log2FoldChange (AC010735.2 (ENSG00000272622)): −0.6927
log2FoldChange (AC011944.1 (ENSG00000177699)): 1.481
log2FoldChange (AC022007.1 (ENSG00000206567)): −0.6327
log2FoldChange (AC022031.2 (ENSG00000267284)): −0.6353
log2FoldChange (AC048341.1 (ENSG00000257354)): −0.6321
log2FoldChange (AC073130.1 (ENSG00000237870)): 1.474
log2FoldChange (AC090192.2 (ENSG00000253227)): 1.561
log2FoldChange (AC090204.1 (ENSG00000247134)): −0.6895
log2FoldChange (AC090505.1 (ENSG00000234805)): 1.656
log2FoldChange (AC099552.1 (ENSG00000217825)): 2.619
log2FoldChange (AC105942.1 (ENSG00000235501)): −0.6072
log2FoldChange (AC117386.2 (ENSG00000243944)): −0.661
log2FoldChange (AC131254.1 (ENSG00000248964)): 2
log2FoldChange (AC133785.1 (ENSG00000233221)): 1.627
log2FoldChange (AC135782.1 (ENSG00000256982)): 1.563
log2FoldChange (AC139491.2 (ENSG00000248596)): 1.322
log2FoldChange (AC237221.1 (ENSG00000260653)): 1.665
log2FoldChange (AC245041.1 (ENSG00000273760)): 1.261
log2FoldChange (ACTBL2 (ENSG00000169067)): −0.6731
log2FoldChange (ACTR3C (ENSG00000106526)): −0.7012
log2FoldChange (ADCYAP1R1 (ENSG00000078549)): 2.87
log2FoldChange (ADGRA2 (ENSG00000020181)): −0.7029
log2FoldChange (ADGRB1 (ENSG00000181790)): 1.472
log2FoldChange (ADGRE4P (ENSG00000268758)): 1.451
log2FoldChange (ADPRHL1 (ENSG00000153531)): 3.706
log2FoldChange (ADRB2 (ENSG00000169252)): 1.354
log2FoldChange (AHNAK2 (ENSG00000185567)): 1.379
log2FoldChange (AHR (ENSG00000106546)): −0.6391
log2FoldChange (AKNAD1 (ENSG00000162641)): 1.238
log2FoldChange (AL161431.1 (ENSG00000275216)): 1.631
log2FoldChange (AL356234.3 (ENSG00000283265)): 2.668
log2FoldChange (AL365181.2 (ENSG00000272068)): 1.422
log2FoldChange (AL390334.1 (ENSG00000258932)): −0.6259
log2FoldChange (AL512488.1 (ENSG00000230439)): 1.824
log2FoldChange (AL590004.4 (ENSG00000260604)): 1.853
log2FoldChange (ALMS1-IT1 (ENSG00000230002)): 1.247
log2FoldChange (ALOXE3 (ENSG00000179148)): 4.94
log2FoldChange (ALPI (ENSG00000163295)): 7.153
log2FoldChange (ANKH (ENSG00000154122)): −0.6414
log2FoldChange (ANO2 (ENSG00000047617)): 2.643
log2FoldChange (ANXA8 (ENSG00000265190)): 1.513
log2FoldChange (ANXA8L1 (ENSG00000264230)): 1.299
log2FoldChange (APOA4 (ENSG00000110244)): 7.547
log2FoldChange (APOE (ENSG00000130203)): −0.6001
log2FoldChange (AQP1 (ENSG00000240583)): −0.6784
log2FoldChange (ARC (ENSG00000198576)): 1.257
log2FoldChange (ARHGDIB (ENSG00000111348)): 1.501
log2FoldChange (ARSA (ENSG00000100299)): −0.6363
log2FoldChange (ATG9B (ENSG00000181652)): 1.674
log2FoldChange (ATP2B2 (ENSG00000157087)): 2.6809
log2FoldChange (B3GALT5 (ENSG00000183778)): 3.38
log2FoldChange (B4GALNT3 (ENSG00000139044)): −0.6558
log2FoldChange (BAALC-AS1 (ENSG00000247081)): −0.5946
log2FoldChange (BEX5 (ENSG00000184515)): 1.778
log2FoldChange (BHLHB9 (ENSG00000198908)): −0.6347
log2FoldChange (BIRC7 (ENSG00000101197)): 1.54
log2FoldChange (BVES (ENSG00000112276)): −0.7008
log2FoldChange (C1orf21 (ENSG00000116667)): −0.5945
log2FoldChange (C1orf116 (ENSG00000182795)): 1.382
log2FoldChange (C3 (ENSG00000125730)): −0.6635
log2FoldChange (C5 (ENSG00000106804)): −0.69
log2FoldChange (C7orf57 (ENSG00000164746)): 1.917
log2FoldChange (C7orf69 (ENSG00000136275)): −0.6813
log2FoldChange (C10orf55 (ENSG00000222047)): 2.331
log2FoldChange (C10orf90 (ENSG00000154493)): −0.626
log2FoldChange (C11orf86 (ENSG00000173237)): 1.233
log2FoldChange (C15orf54 (ENSG00000175746)): 1.489
log2FoldChange (C16orf45 (ENSG00000166780)): −0.6742
log2FoldChange (CACNA1D (ENSG00000157388)): −0.6311
log2FoldChange (CACNA1H (ENSG00000196557)): 1.733
log2FoldChange (CALB2 (ENSG00000172137)): 1.839
log2FoldChange (CARMIL1 (ENSG00000079691)): −0.6828
log2FoldChange (CASC9 (ENSG00000249395)): −0.6279
log2FoldChange (CASTOR3 (ENSG00000239521)): −0.6683
